Here are results for 7 compounds from ChEMBL document CHEMBL1140242, “Metabolism investigation leading to novel drug design: orally active prostacyclin mimetics. Part 4” (Bioorg Med Chem Lett, 2005).

A short description of series [1]: Elimination half-life after peroral administration at a dose of 0.32 (mg/kg) in rat. The series is classed as ADME, organism-based. The following applies: in vivo, po.
The test system of series [2] is Rattus norvegicus. Put plainly: Effective dose for in vivo activity in D-GalN/LPS-induced rat hepatic injury model. The series is classed as functional.
The nature of series [3]: Maximum (Peak) plasma drug concentration after single-dose administration at a dose of 0.32 (mg/kg) in rat. The series is classed as ADME, organism-based. The arrangement: dose 0.32 mg/kg.
Series [4] is described as follows: Bioavailability of the drug after […] administration at a dose of 0.32 (mg/kg) in rat. The note with it: in vivo, iv, read-out: Ba. The series is classed as ADME, organism-based.
A short description of series [5]: Inhibition of ADP-induced aggregation of monkey platelets. The series is classed as functional. The following applies: Cercopithecidae.
For the next series, the species on record is Homo sapiens. The series is described as follows: Inhibition of ADP-induced aggregation of human platelets. It is filed as functional, organism-based.
Series [6] concerns the target Prostaglandin F2-alpha receptor (Homo sapiens, UniProt P43088). Put plainly: Inhibition of [3H]-PGF-2 binding to human Prostanoid FP receptor.
In series [7] the target is Prostaglandin E2 receptor EP4 subtype (Homo sapiens, UniProt P35408). Put plainly: Inhibition of [3H]PGE-2 binding to Prostanoid EP4 receptor.
Sequence of Prostaglandin E2 receptor EP4 subtype (P35408 whole entry): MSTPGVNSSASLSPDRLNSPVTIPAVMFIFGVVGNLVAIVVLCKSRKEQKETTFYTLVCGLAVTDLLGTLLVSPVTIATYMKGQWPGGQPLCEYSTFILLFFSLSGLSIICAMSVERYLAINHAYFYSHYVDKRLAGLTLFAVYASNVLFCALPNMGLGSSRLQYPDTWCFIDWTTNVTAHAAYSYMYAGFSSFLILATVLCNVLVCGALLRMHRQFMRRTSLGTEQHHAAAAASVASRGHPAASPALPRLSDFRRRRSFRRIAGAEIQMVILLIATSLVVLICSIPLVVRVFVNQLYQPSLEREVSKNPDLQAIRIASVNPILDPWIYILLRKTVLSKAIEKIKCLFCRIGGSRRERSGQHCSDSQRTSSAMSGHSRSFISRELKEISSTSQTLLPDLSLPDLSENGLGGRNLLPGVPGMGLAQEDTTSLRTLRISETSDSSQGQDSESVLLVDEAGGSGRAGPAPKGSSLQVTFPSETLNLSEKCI
Series [8] deals with Prostaglandin E2 receptor EP2 subtype (Homo sapiens, UniProt P43116). The series is described as follows: Inhibition of [3H]PGE-2 binding to Prostanoid EP2 receptor.
Sequence of Prostaglandin E2 receptor EP2 subtype (P43116 whole entry): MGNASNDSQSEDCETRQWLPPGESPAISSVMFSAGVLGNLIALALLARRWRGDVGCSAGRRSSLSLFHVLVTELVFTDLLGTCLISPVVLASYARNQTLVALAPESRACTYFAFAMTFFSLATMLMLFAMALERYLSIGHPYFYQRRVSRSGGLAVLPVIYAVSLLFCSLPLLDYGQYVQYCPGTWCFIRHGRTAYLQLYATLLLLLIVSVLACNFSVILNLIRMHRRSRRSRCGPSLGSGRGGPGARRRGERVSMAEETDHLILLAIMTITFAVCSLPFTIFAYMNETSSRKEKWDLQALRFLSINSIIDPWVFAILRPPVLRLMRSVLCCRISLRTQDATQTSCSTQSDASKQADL
The next series has as its target T1, Thromboxane A2 receptor (Homo sapiens, UniProt P21731).
T1 sequence (P21731 whole entry): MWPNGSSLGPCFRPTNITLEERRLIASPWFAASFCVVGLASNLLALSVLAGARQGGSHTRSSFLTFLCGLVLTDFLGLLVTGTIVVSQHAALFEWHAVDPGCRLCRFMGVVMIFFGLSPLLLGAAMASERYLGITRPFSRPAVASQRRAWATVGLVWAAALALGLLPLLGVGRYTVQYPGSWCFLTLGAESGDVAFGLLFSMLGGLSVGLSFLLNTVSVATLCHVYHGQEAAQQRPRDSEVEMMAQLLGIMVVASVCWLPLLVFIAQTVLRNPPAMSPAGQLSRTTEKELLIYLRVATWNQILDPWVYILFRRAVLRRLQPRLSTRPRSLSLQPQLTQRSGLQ
The series is described as follows: Inhibition of [3H]SQ-29,548 binding to human Prostanoid TP receptor.

The species entered for another series is Canis familiaris. Put plainly: Inhibition of ADP-induced aggregation of dog platelets. The series is classed as functional. The following applies: Canis lupus familiaris.
Series [9] can be described thus: Area Under Plasma concentration-time curve after peroral administration at a dose of 1 (mg/kg) in rat. It is filed as ADME, organism-based. The following applies: po.
Series [10] is described as follows: Maximum (Peak) plasma drug concentration after single-dose administration at a dose of 1 (mg/kg) in rat. The series is classed as ADME, organism-based. The arrangement: dose 1 mg/kg.
The target of series [11] is T2, Prostaglandin E2 receptor EP1 subtype (Homo sapiens, UniProt P34995).
T2 sequence (P34995 whole entry): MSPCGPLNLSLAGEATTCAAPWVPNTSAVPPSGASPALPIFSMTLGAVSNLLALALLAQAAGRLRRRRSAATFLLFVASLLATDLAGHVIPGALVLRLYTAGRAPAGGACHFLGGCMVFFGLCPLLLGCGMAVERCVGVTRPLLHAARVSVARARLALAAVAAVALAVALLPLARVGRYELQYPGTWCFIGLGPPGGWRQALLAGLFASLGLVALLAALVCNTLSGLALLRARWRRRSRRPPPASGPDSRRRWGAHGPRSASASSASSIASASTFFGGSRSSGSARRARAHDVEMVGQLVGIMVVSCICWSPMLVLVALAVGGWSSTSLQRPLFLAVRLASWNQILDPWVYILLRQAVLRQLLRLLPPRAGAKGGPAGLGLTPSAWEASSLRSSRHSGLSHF
The series is described as follows: Inhibition of [3H]PGE-2 binding to Prostanoid EP1 receptor.

Another series has as its target Prostacyclin receptor (Homo sapiens, UniProt P43119). The series is described as follows: Inhibition of [3H]-Iloprost binding to human Prostanoid IP receptor.
Series [12] addresses T3, Prostaglandin D2 receptor (Homo sapiens, UniProt Q13258).
T3 sequence (Q13258 whole entry): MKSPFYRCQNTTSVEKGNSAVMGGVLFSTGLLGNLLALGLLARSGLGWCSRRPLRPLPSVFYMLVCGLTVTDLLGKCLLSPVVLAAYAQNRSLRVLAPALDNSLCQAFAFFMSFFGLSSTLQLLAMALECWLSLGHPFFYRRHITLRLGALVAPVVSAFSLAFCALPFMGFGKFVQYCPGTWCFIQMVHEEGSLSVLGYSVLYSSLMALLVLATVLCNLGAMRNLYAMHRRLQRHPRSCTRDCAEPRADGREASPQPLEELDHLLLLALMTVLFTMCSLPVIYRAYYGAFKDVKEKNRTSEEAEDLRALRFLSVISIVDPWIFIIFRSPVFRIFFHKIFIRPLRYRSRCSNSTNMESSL
Put plainly: Inhibition of [3H]PGD-2 binding to human Prostanoid DP receptor.

The species entered for series [13] is Rattus norvegicus. The series is described as follows: Inhibition of ADP-induced aggregation of rat platelets. The series is classed as functional, organism-based.
Series [14] is described as follows: Total body clearance of drug from the plasma after i.v. administration at a dose of 1 (mg/kg) in rat. It is filed as ADME, organism-based. The note with it: iv, read-out: CLtot.
Series [15] is described as follows: Bioavailability of the drug after […] administration at a dose of 1 (mg/kg) in rat. It is filed as ADME, organism-based. The following applies: in vivo, iv, read-out: Ba.
Series [16] addresses T4, Prostaglandin E2 receptor EP3 subtype (Homo sapiens, UniProt P43115).
T4 sequence (P43115 whole entry): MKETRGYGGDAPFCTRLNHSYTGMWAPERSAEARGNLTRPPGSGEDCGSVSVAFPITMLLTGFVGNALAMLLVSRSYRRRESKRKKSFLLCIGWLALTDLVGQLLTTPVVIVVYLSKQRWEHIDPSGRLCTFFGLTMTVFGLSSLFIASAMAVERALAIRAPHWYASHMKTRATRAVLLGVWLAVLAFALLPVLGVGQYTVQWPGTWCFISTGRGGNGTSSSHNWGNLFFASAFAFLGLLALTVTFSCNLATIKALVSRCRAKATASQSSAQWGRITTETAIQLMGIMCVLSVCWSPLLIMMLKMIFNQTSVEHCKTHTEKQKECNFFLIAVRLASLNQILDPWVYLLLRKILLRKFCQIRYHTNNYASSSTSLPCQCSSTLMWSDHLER
The series is described as follows: Inhibition of [3H]-PGE-2 binding to Prostanoid EP3 receptor.

Series [17] in a line: Area Under Plasma concentration-time curve after peroral administration at a dose of 0.32 (mg/kg) in rat. The series is classed as ADME, organism-based. The note with it: po.
A short description of series [18]: Total body clearance of drug from the plasma after i.v. administration at a dose of 0.32 (mg/kg) in rat. The series is classed as ADME, organism-based. The note with it: iv, read-out: CLtot.

Each structure is given as a SMILES string.

Usually half-life stands for the time needed for the level to fall by half in the phase considered. Broadly, the ED50 is the dose that gives a 50% effect, or the effect in half of the subjects. Usually Cmax stands for the highest concentration seen after dosing. In general, IC50 refers to the point on the concentration scale where inhibition reaches its midpoint. As a reminder, the Ki is the dissociation constant of the complex between target and ligand, obtained from inhibition or displacement. One may read the AUC as the area under the concentration-time curve, a measure of exposure.

Sequence of Prostacyclin receptor (P43119 whole entry): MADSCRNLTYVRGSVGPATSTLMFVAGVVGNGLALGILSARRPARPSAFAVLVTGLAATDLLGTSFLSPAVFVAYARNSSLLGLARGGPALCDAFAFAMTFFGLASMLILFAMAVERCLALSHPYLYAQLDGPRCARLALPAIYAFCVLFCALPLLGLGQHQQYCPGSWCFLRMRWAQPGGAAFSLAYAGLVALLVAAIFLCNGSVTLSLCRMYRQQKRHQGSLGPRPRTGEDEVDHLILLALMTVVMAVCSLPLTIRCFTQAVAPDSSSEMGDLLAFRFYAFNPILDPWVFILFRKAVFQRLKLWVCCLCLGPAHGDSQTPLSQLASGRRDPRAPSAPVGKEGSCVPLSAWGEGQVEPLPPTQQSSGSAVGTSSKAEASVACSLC
Sequence of Prostaglandin F2-alpha receptor (P43088 whole entry): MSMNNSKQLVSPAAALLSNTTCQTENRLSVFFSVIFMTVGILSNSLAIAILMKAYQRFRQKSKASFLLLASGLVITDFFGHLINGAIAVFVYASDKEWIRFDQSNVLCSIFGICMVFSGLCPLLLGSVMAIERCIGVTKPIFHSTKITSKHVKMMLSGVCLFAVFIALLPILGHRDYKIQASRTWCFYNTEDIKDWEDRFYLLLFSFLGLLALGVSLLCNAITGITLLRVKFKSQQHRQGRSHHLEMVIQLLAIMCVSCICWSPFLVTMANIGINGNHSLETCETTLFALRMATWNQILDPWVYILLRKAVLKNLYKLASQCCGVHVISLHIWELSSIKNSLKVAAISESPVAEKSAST

The compound `O=C([O-])COc1cccc(C[C@@H]2CCCC=C2c2nc(-c3ccccc3)c(-c3ccccc3)o2)c1.[Na+]` gave a half-life in series [1] of 6.6 h. The ED50 in the series on Rattus norvegicus [2] came to 0.032 mg/kg. This compound also came in with a Cmax in series [3] of 16.4 ng/mL. Also, the bioavailability in [4] is 50%. Besides, in series [5], it took 188 nM to reach half-maximal inhibition (IC50).
For the compound `O=C(O)COc1cccc(C[C@@H]2CCC[C@H]3O[C@@]23c2nc(-c3ccccc3)c(-c3ccccc3)o2)c1`, 12 nM corresponded to half-maximal inhibition in the series filed under Homo sapiens (IC50).
In the case of `O=C([O-])COc1cccc(C[C@@H]2CCC[C@@H]3O[C@]23c2nc(-c3ccccc3)c(-c3ccccc3)o2)c1.[Na+]`, the Ki in [6] was > 10000 nM; in series [7], 7200 nM; in [8], 1400 nM; on Thromboxane A2 receptor it was 930 nM; in series [11], > 10000 nM; at Prostacyclin receptor, 6.1 nM. Besides, the values for the Ki in series [12] and in [16] were 2900 nM and 3200 nM, respectively. In series [1], this compound showed a half-life of 26.9 h. In addition, the IC50 turned out to be 1470 nM in the series filed under Canis familiaris, 5.8 nM in the series listed under Homo sapiens, 12 nM in series [5] and 300 nM in the series filed under Rattus norvegicus [13]. Besides, the AUC in [9] came to 168 ng·h/mL. Besides, the concentration in series [10] peaked (Cmax) at 67.9 ng/mL. For the same compound, in series [14], the clearance is 18.6 mL/min/kg. Also, in [15], the bioavailability came to 20%.
In the series filed under Homo sapiens, `O=C(O)COc1cccc(C[C@@H]2CCCC3OC32c2nc(-c3ccccc3)c(-c3ccccc3)o2)c1` (stereo not given in full) returned an IC50 of 14 nM.
The compound `O=C([O-])COc1cccc(C[C@@H]2CCC=C2c2nc(-c3ccccc3)c(-c3ccccc3)o2)c1.[Na+]` had an AUC in series [17] of 42.5 ng·h/mL. This compound had a half-life in [1] of 17 h. Besides, it took a dose of 1 mg/kg to reach the 50% effect level in the series on Rattus norvegicus [2] (ED50). Besides, the IC50 in the series filed under Homo sapiens is 56 nM; in the series listed under Rattus norvegicus [13], 2800 nM. Also, the clearance in series [18] was determined as 9.19 mL/min/kg. This compound came in with a Ki on Prostacyclin receptor of 41 nM. Also, in series [3], the Cmax amounted to 45.2 ng/mL. Besides, the bioavailability in series [4] was found to be 78%.
Take `O=C(O)COc1cccc(C[C@@H]2CCC=CC2(O)c2nc(-c3ccccc3)c(-c3ccccc3)o2)c1` (stereo not given in full): in the series filed under Homo sapiens, the IC50 was 98 nM.
With `O=C(O)COc1cccc(C[C@@H]2CCCC(O)=C2c2nc(-c3ccccc3)c(-c3ccccc3)o2)c1`, it took 116 nM to reach half-maximal inhibition in the series listed under Homo sapiens (IC50).
